According to article PMC9011347, “Small-Molecule Inhibitors Targeting Lipolysis in Human Adipocytes” (Journal of the American Chemical Society, 2022):

Biological target: T1, ATGL and G0S2 (Homo sapiens, UniProt Q96AD5)
T1 construct: expressed in transfected cells; host or cells: HEK293 cells; NG-497 added to the lysates
Experiment: Co-immunoprecipitation of ATGL and G0S2
Assay type: binding
Conditions: NG-497 40 µM, HEK293 lysates, FLAG-ATGL and His-G0S2
Experimental: Fig. S2: Effect of NG-497 on the protein-protein interaction of ATGL and G0S2 investigated by co-immunoprecipitation.
HEK293 cells were co-transfected with FLAG-tagged ATGL and His-tagged G0S2 (both human). As controls, FLAG-tagged ATGL was co-expressed with His-LacZ, and His-tagged G0S2 with empty FLAG-vector (e-FLAG). (a) Protein expression of the indicated plasmid combinations was confirmed using anti-Xpress and anti-Flag antibodies. (b) Cell lysates were incubated with anti-FLAG M2 affinity beads in the presence or absence of NG-497 (40 µM). After extensive washing, bound proteins were eluted by boiling in SDS-containing sample buffer and subjected to Western blotting analysis. His-G0S2 was exclusively […]
Data are representative for two
(1 picture or pasted object on this page, not shown here)
Co-immunoprecipitation. HEK293 cells were co-transfected with the indicated plasmid combinations using Metafectene (#T020-5.0; Biontex, Germany) according to the manufacturer’s instructions. […]
Analysis of toxicity in HepG2 hepatocytes. […] Release of LDH into the medium was analyzed using the Cytotoxicity Detection Kit PLUS (LDH) (MilliporeSigma) according to the manufacturer’s instructions. Cytotoxicity was calculated as relative LDH release as compared to fully lysed cells. […]

T1 sequence (Q96AD5 whole entry): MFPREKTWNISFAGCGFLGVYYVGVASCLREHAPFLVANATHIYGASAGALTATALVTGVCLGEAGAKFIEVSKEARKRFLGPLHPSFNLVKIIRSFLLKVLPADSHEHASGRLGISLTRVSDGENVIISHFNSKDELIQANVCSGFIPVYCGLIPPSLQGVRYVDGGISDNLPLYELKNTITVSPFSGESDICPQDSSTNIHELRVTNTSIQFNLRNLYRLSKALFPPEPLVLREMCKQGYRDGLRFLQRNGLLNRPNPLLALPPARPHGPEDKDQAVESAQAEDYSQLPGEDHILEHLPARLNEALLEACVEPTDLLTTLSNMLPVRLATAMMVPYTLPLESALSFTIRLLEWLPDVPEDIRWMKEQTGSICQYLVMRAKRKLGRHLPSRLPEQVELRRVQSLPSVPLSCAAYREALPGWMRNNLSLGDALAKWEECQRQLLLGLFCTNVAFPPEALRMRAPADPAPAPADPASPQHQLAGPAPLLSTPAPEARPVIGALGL
T1 sequence (P27469 whole entry partner): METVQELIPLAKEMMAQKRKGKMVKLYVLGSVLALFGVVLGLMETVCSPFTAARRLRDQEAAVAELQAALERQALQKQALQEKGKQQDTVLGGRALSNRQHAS

Question: `CCOc1ccc(-c2cc(OC)cc(C(=O)OC(C)C)n2)cc1` [NG-497] was tested. Which “G0S2 binding to ATGL (co-immunoprecipitation)” value did it give?
Answer: The value was “increased G0S2 binding”.
